Here are results for 1 compound from paper PMC8703466, “Unravelling the Interaction of Piperlongumine with the Nucleotide-Binding Domain of HSP70: A Spectroscopic and In Silico Study” (Pharmaceuticals, 2021).

Structures are written as SMILES.

The test has as its target T1, nucleotide-binding domain of heat shock protein 70 (NBD/HSP70) (Homo sapiens, UniProt P0DMV8).
T1 construct: gene HSPA1A
The experiment in a line: intrinsic Trp90 fluorescence quenching titration (steady-state, IDF/Hill fit), supported by time-resolved fluorescence; CD. The following applies: read-out: intrinsic Trp90 fluorescence quenching titration (steady-state, IDF/Hill fit), s.

T1 sequence (P0DMV8 1-382 limits assumed): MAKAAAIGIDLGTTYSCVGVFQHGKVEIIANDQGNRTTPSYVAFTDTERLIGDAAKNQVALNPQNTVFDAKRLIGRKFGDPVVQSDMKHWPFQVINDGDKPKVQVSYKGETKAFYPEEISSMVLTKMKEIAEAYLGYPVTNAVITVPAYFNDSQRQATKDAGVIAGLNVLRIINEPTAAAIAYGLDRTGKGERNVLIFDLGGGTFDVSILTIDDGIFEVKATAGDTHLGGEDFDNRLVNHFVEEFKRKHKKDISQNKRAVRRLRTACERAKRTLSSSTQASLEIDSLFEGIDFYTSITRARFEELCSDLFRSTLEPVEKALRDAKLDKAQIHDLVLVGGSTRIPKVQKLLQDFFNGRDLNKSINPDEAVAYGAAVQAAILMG

Consider `COc1cc(/C=C/C(=O)N2CCC=CC2=O)cc(OC)c1OC` [PPL, Piperlongumine], for which the Kd is 15.9 µM.
